Results on 2 compounds are retold here after patent publication US20260007684A1, “AMIDE DERIVATIVES FOR INHIBITING NLRP3 AND USES THEREOF” (Ventus Therapeutics U.S., Inc., priority 2023, published 2026).

Read-outs that look alike come from different tables or passages of the source.

Assay [1] has as its target T1, human NLRP3 (Homo sapiens (Human), UniProt Q96P20). Put plainly: Human PBMC NLRP3 Assay (LPS priming, ATP stimulation, cytokine measurement). It counts as cell-based. Conditions: for IC50: read-out: PBMC IC50.
For the next assay, the target named is mouse NLRP3 (Mus musculus (Mouse), UniProt Q8R4B8). The assay can be described thus: Mouse Whole Blood (mWB) NLRP3 Assay (LPS/ATP, IL-1b). The assay is classed as cell-based. As for the experimental part: Reagents: The following reagents were used: blood collection tubes (Heparin); U-bottom 96-well tissue culture (Falcon 353077); HBSS for LPS, ATP and compound dilutions (Gibco 24020-117); and LPS, E. coli serotype 026:B6 (Sigma L-2654).
Chain of mouse NLRP3 (Q8R4B8 whole entry): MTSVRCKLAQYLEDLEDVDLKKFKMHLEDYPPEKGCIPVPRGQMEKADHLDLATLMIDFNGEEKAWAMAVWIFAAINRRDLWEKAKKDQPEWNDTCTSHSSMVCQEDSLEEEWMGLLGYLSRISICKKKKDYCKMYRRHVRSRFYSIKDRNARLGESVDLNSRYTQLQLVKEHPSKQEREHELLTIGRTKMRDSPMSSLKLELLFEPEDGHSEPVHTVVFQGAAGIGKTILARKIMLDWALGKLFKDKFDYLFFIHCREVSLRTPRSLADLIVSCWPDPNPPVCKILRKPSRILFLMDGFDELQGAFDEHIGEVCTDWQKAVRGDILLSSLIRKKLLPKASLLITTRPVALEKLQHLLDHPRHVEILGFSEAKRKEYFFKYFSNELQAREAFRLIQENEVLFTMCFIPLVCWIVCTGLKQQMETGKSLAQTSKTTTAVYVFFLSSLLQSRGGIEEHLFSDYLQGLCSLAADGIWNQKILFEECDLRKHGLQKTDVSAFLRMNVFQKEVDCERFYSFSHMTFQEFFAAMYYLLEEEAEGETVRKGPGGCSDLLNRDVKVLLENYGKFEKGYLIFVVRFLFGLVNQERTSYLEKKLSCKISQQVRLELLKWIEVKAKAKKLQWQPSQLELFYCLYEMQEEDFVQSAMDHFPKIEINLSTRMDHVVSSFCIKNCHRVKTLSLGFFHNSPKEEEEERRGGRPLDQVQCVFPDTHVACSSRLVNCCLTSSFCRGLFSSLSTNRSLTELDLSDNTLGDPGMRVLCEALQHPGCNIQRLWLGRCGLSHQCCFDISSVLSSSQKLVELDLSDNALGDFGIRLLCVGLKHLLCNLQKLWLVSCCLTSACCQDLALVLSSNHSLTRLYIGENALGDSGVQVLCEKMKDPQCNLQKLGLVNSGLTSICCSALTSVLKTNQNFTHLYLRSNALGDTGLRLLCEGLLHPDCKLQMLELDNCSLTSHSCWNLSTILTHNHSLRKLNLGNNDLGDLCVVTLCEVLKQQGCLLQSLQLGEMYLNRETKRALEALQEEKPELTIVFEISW
Mouse IL-1b MSD assay: Blood was drawn from female CD1 mice (9 to 10 weeks) by cardiac puncture. Blood was plated (135 μL) per well in 96-well U-bottom plates. 7.5 μL of 20×LPS (20 μg/mL, final concentration of 1 μg/mL) was added and mixed by gentle pipetting, and the mixture was incubated in a TC incubator for five hours. 7.5 μL of 20× compound or vehicle per well was added and mixed by gentle pipetting. Compounds were diluted 1/50 in HBSS to prepare a 20× dilution curve in […].
The mixture was incubated for 30 minutes in a TC incubator with shaking (450 rpm). 5 μl of 31×ATP (155 mM, final concentration of 5 mM) was added and mixed by gentle pipetting. The mixture was incubated in a TC incubator for 30 minutes with shaking (450 rpm). The plate was centrifuged for 10 minutes at 800×g and −70 μL of plasma was removed. Plasma was frozen if required. Mouse IL-1b was analyzed with IL-1b MSD assay (K152TUK).
Compounds were added 30 minutes before priming the cells with LPS when TNFα was required to be quantified in the cytokine panel to confirm selectivity.

The target in assay [2] is T1, human NLRP3. Put plainly: Scintillation Proximity (SPA) NLRP3 Assay: displacement of 3H-MCC950. The assay is classed as binding. Particulars: for IC50: read-out: SPA IC50. Background: SPA uses beads or plates that emit light when radiolabelled molecules are held near them.
The target in assay [3] is T1, human NLRP3. Put plainly: Human Whole Blood (hWB) NLRP3 Assay (LPS/ATP, IL-1β). The assay is classed as cell-based. Particulars: for IC50: read-out: hWB IC50.
[4] abbreviates: human PBMC, LPS priming, ATP stimulation.
The mark [5] stands for this setting: mouse whole blood, LPS/ATP, IL-1b.
Setting [6] is: human whole blood, LPS/ATP, IL-1β.

T1 sequence (Q96P20 whole entry): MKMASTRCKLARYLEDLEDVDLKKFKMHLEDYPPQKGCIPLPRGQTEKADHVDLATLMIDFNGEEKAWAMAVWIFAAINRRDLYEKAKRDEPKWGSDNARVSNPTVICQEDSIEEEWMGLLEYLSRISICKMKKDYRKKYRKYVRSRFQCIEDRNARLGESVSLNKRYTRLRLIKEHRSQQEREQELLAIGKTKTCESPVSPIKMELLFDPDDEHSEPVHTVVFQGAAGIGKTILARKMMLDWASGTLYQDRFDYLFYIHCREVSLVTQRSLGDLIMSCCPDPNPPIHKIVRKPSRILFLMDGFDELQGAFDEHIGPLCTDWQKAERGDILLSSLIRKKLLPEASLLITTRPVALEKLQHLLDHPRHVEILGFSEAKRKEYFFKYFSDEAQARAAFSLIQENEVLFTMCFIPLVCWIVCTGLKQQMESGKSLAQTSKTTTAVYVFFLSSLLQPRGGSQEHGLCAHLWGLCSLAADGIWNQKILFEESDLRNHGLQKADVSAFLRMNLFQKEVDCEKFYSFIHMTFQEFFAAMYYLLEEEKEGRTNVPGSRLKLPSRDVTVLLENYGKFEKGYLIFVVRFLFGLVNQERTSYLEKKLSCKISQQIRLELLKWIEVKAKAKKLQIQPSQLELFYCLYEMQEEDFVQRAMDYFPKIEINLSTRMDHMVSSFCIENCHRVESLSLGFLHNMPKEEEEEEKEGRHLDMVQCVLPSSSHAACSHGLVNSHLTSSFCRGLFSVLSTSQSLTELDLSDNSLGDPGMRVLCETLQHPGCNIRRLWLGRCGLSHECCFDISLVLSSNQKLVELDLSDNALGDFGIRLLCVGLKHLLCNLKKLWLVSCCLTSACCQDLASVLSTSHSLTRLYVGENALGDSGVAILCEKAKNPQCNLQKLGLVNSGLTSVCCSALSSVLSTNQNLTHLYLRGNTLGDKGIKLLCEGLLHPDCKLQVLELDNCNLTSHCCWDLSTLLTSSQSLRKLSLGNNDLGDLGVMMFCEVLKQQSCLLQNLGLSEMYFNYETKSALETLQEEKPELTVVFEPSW

As usually defined, the IC50 is the concentration that inhibits the measured activity by half. For `C[C@H]1CCN(c2nnn[nH]2)C[C@@H]1NC(=O)C1(c2ccc(Cl)cc2)CC1` [Compound 49C, 1-(4-chlorophenyl)-N-[(3R,4S)-4-methyl-1-(1H-tetrazol-5-yl)-3-piperidyl]cyclopropanecarboxamide], the IC50 was in the range of 0.1 to 0.5 µM at human NLRP3 [1] (setting [4]), 2 to 3 µM on mouse NLRP3 (setting [5]), 1 to 10 µM at human NLRP3 [2] (displacement of 3H-MCC950) and 2 to 3 µM at human NLRP3 [3] (setting [6]).

Turning to `O=C(N[C@@H]1CCCCN(c2nnn[nH]2)C1)C1(c2ccc(Cl)cc2)CC1` [Compound 51A, 1-(4-chlorophenyl)-N-[(3R)-1-(1H-tetrazol-5-yl)azepan-3-yl]cyclopropanecarboxamide], the IC50 on human NLRP3 [1] (setting [4]) was 0.01 to 0.1 µM; on human NLRP3 [1], 0.044 µM; on mouse NLRP3 it was 1.8 µM; against mouse NLRP3 (setting [5]), 1 to 2 µM; on human NLRP3 [2] (displacement of 3H-MCC950) it was 1 to 10 µM; at human NLRP3 [2], 2.2 µM. Besides, the IC50 at human NLRP3 [3] (setting [6]) is below 1 µM; at human NLRP3 [3], 0.72 µM. In addition, on human NLRP3 [1] (relative to Compound 10A), the “fold increase in potency as measured by PBMC IC50” value worked out at 48 fold. Moreover, the “fold increase in binding activity (SPA IC50)” value at human NLRP3 [2] (relative to Compound 10A) was above 4 fold. Besides, on human NLRP3 [3] (relative to Compound 10A), the “fold increase in potency as measured by hWB IC50” value was above 10 fold.
